Patent publication US10562869B2, “Oxadiazole compounds” (REMYND NV, priority 2014, dated 2020)

Assays:
[1] = system: INS-1E cells; test: Cytokine-induced caspase-3/7 activation in INS-1E cells (beta cell stress/apoptosis model, Caspase-Glo 3/7); format: cell-based; settings: Rattus norvegicus, cytokine mix (IFN-γ, IL-1β, TNF-α), 24 hours, caspase 3/7 activity, read-out: CYT EC50
Description: The INS-1E cell line, a rat insulinoma cell line, has been characterized extensively. INS-1E cells respond to glucose by secreting insulin and, unlike most other immortalized β-cell lines, they do this in a consistent manner over time. The cells are sensitive to hyperglycemia-, free fatty acid (FFA)-, and cytokine-induced stress. Prolonged stress ultimately leads to induction of apoptotic pathways and, if stress is not counter-acted, to apoptosis. Caspase-3 and -7 play a central role downstream where various apoptotic pathways merge. As such, activation (i.e. cleavage) of these caspases forms a relevant primary read-out to evaluate protective activity of compounds against stress-induced apoptosis.
To evaluate the efficacy of different compounds to prevent induction of apoptosis, an in vitro screen was developed in which INS-1E cells were exposed to a cytokine mix (IFN-γ, 5 ng/ml; IL-1β, 20 pg/ml; TNF-α, 0.25 ng/ml). The degree of induction of apoptosis was evaluated using a substrate for cleaved caspase-3 and -7, i.e. a proluminescent caspase-3/7 DEVD aminoluciferin substrate with a thermostable luciferase (Caspase-Glo® 3/7 assay; Promega, cat. G8092).
On day 0, INS-1E cells were plated in a white-walled 96-well microplate (Greiner, cat. 655098) at 20,000 cells per well in 100 μl complete medium (RPMI containing 11 mM glucose supplemented with 5% FCS, 100 IU/ml penicillin, 100 μg/ml streptomycin, 10 mM HEPES, 1 mM Sodium Pyruvate and 50 μM 2-Mercapto-ethanol). On day 2, 100 μl medium containing cytokines and compound dissolved in DMSO was added to the cells. Wells without cytokines containing DMSO and wells with cytokines and DMSO were included to evaluate the degree of caspase 3/7 activation by the cytokine mix. After 24 hours exposure to cytokines and/or compound, Caspase-Glo® 3/7 reagent was added to the cells and caspase activity was determined by measuring luminescence.
To evaluate compound efficacy, the “toxicity window” was calculated by subtracting caspase activity of wells without stressor from activity of wells with stressor but without compound. The amount of caspase activity in the latter wells was normalized to 1 and used as reference. Subsequently, caspase activity in the wells with stressor and varying concentrations of compound was calculated relative to the wells without compound. Plotting caspase activity vs the log 10 of the concentration of compound permitted calculation of the EC50 values for the compounds which typically lied between 0.0001 and 10 μM. Compounds with an EC50<10 μM were considered active.

[2] = system: M17_3SYN cells; test: Paraquat-induced cytotoxicity (LDH) in α-synuclein over-expressing M17_3SYN neuroblastoma cells; format: cell-based, human; settings: Homo sapiens, Neuroblastoma cell, 48 h, toxicity inhibition (LDH) in M17_3SYN cells challenged with 6 mM paraquat, 2 days; read-out: SYN EC50
How it was run: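 Human BE-M17 neuroblastoma cells stably overexpressing wild-type α-synuclein challenged with paraquat (final 6 mM) for 2 days at 37 °C alongside compounds over a concentration range. Cytotoxicity as LDH released relative to total LDH; EC50 from dose-dependent inhibition curve.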

[3] = system: M17_3TAU(P301L) cells; test: Retinoic acid-induced cytotoxicity (LDH) in TAU-P301L expressing M17_3TAU(P301L) neuroblastoma cells; format: cell-based; settings: Homo sapiens, Neuroblastoma cell, 168 h; toxicity inhibition (LDH) in M17_3TAU(P301L) cells challenged with retinoic acid, 7 days
How it was run: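 Cells in 1% FCS medium challenged with RA (3.75 μM added in equal volume of serum-free medium) plus compound for 7 days at 37 °C. Cytotoxicity read as released LDH relative to total LDH; EC50 from dose-dependent reduction in toxicity.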

SMILES | EC50 [1] [nM] | EC50 [2] [nM] | EC50 [3] [nM]
CSc1ccc(S(=O)(=O)N2CCN(c3nc(C4(c5cccc(Cl)c5)CC4)no3)CC2)cc1 [Cmpd137, 1-{3-[1-(3-Chloro-phenyl)-cyclopropyl]-[1,2,4]oxadiazol-5-yl}-4-(4-methylsulfanyl-benzenesulfonyl)-piperazine] | 9 | 7 | –
CSc1ccc(S(=O)(=O)N2CCN(c3nc(C4(c5ccc(Cl)cc5)CC4)no3)CC2)cc1 [Cmpd141, 1-{3-[1-(4-Chloro-phenyl)-cyclopropyl]-[1,2,4]oxadiazol-5-yl}-4-(4-methylsulfanyl-benzenesulfonyl)-piperazine] | 19 | 12 | –
CCOc1ccc(S(=O)(=O)N2CCN(c3nc(C4(c5cccc(Cl)c5)CC4)no3)CC2)cc1 [Cmpd135, 1-{3-[1-(3-Chloro-phenyl)-cyclopropyl]-[1,2,4]oxadiazol-5-yl}-4-(4-ethoxy-benzenesulfonyl)-piperazine] | 129 | 28 | –
CCOc1ccc(S(=O)(=O)N2CCN(c3nc(C4(c5ccccc5)CC4)no3)CC2)cc1 [Cmpd121, 1-(4-Ethoxy-benzenesulfonyl)-4-[3-(1-phenyl-cyclopropyl)-[1,2,4]oxadiazol-5-yl]-piperazine] | 186 | 10 | –
CSc1ccc(S(=O)(=O)N2CCC3(CC2)CN(c2nc(CC(F)(F)F)no2)C3)cc1 [Cmpd215, 5-(7-((4-(Methylthio)phenyl)sulfonyl)-2,7-diazaspiro[3.5]nonan-2-yl)-3-(2,2,2-trifluoroethyl)-1,2,4-oxadiazole] | 145 | 274 | –
COc1ccc(S(=O)(=O)N2CCN(c3nc(C(C)(C)c4ccnc(C)c4)no3)CC2)cc1 [Cmpd195, 5-(4-((4-Methoxyphenyl)sulfonyl)piperazin-1-yl)-3-(2-(2-methylpyridin-4-yl)propan-2-yl)-1,2,4-oxadiazole] | 52 | 70 | –
COc1ccc(S(=O)(=O)N2CCN(c3nc(C(F)(F)c4ccc(F)cc4)no3)CC2)cc1 [Cmpd146, 1-{3-[Difluoro-(4-fluoro-phenyl)-methyl]-[1,2,4]oxadiazol-5-yl}-4-(4-methoxy-benzenesulfonyl)-piperazine] | 75 | 8 | –
COc1ccc(S(=O)(=O)N2CCN(c3nc(C(C)(C)c4ccc(F)cc4)no3)CC2)cc1 [Cmpd113, 1-{3-[1-(4-Fluoro-phenyl)-1-methyl-ethyl]-[1,2,4]oxadiazol-5-yl}-4-(4-methoxy-benzenesulfonyl)-piperazine] | 1 | 8 | –
COc1ccc(S(=O)(=O)N2CCN(c3nc(C4(c5ccc(F)cc5)CC4)no3)CC2)cc1 [Cmpd105, 1-{3-[1-(4-Fluoro-phenyl)-cyclopropyl]-[1,2,4]oxadiazol-5-yl}-4-(4-methoxy-benzenesulfonyl)-piperazine] | 27 | 9 | –
CSc1ccc(S(=O)(=O)N2CCN(c3nc(C(C)(C)c4ccc(F)cc4)no3)CC2)cc1 [Cmpd116, 1-{3-[1-(4-Fluoro-phenyl)-1-methyl-ethyl]-[1,2,4]oxadiazol-5-yl}-4-(4-methylsulfanyl-benzenesulfonyl)-piperazine] | 26 | 7 | –
COc1ccc(S(=O)(=O)N2CCC3(CC2)CN(c2nc(C4(c5ccc(F)cc5)CC4)no2)C3)cc1 [Cmpd213, 3-(1-(4-Fluorophenyl)cyclopropyl)-5-(7-((4-methoxyphenyl)sulfonyl)-2,7-diazaspiro[3.5]nonan-2-yl)-1,2,4-oxadiazole] | 10 | 360 | –
CSc1ccc(S(=O)(=O)N2CCN(c3nc(C(F)(F)c4ccccc4)no3)CC2)cc1 [Cmpd157, 1-[3-(Difluoro-phenyl-methyl)-[1,2,4]oxadiazol-5-yl]-4-(4-methylsulfanyl-benzenesulfonyl)-piperazine] | 498 | 4 | –
O=S(=O)(c1ccc(OC(F)F)cc1)N1CCN(c2nc(C3(c4cccc(Cl)c4)CC3)no2)CC1 [Cmpd136, 1-{3-[1-(3-Chloro-phenyl)-cyclopropyl]-[1,2,4]oxadiazol-5-yl}-4-(4-difluoromethoxy-benzenesulfonyl)-piperazine] | 24 | 8 | –
COc1ccc(S(=O)(=O)N2CCN(c3nc(C4(c5cccc(Cl)c5)CC4)no3)CC2)cc1 [Cmpd134, 1-{3-[1-(3-Chloro-phenyl)-cyclopropyl]-[1,2,4]oxadiazol-5-yl}-4-(4-methoxy-benzenesulfonyl)-piperazine] | 16 | 2 | –
COc1ccc(S(=O)(=O)N2CCN(c3nc(COCC4CC4)no3)CC2)cc1 [Cmpd203, 3-((Cyclopropylmethoxy)methyl)-5-(4-((4-methoxyphenyl)sulfonyl)piperazin-1-yl)-1,2,4-oxadiazole] | 153 | 8 | –
CSc1ccc(S(=O)(=O)N2CCN(c3nc(C4C[C@@H]5CC[C@H]4C5)no3)CC2)cc1 (stereo partly drawn) [Cmpd191, 3-((1S,4R)-bicyclo[2.2.1]heptan-2-yl)-5-(4-((4-(methylthio)phenyl)sulfonyl)piperazin-1-yl)-1,2,4-oxadiazole] | 554 | 109 | –
CSc1ccc(S(=O)(=O)N2CCN(c3nc(C(F)(F)c4ccc(F)cc4)no3)CC2)cc1 [Cmpd151, 1-{3-[Difluoro-(4-fluoro-phenyl)-methyl]-[1,2,4]oxadiazol-5-yl}-4-(4-methylsulfanyl-benzenesulfonyl)-piperazine] | 41 | 13 | –
Cc1ccccc1CN1CCN(c2nc(CCC(F)(F)F)no2)CC1 [Cmpd176, 5-(4-(2-Methylbenzyl)piperazin-1-yl)-3-(3,3,3-trifluoropropyl)-1,2,4-oxadiazole] | – | – | 169
CC(C)N1CCN(c2nc(Cc3ccc(Cl)cc3)no2)CC1 [Cmpd071, 3-(4-Chlorobenzyl)-5-(4-isopropylpiperazin-1-yl)-1,2,4-oxadiazole] | – | – | 133
c1ccc(Cc2noc(N3CCN(Cc4ccc5c(c4)OCO5)CC3)n2)cc1 [Cmpd040, 1-Benzo[1,3]dioxol-5-ylmethyl-4-(3-benzyl-[1,2,4]oxadiazol-5-yl)-piperazine] | – | – | 64
Fc1ccc(-c2noc(N3CCN(Cc4ccccc4Cl)CC3)n2)cc1F [Cmpd035, 5-(4-(2-Chlorobenzyl)piperazin-1-yl)-3-(3,4-difluorophenyl)-1,2,4-oxadiazole] | – | – | 24
Cc1ccccc1CN1CCN(c2nc(-c3cccc(Cl)c3)no2)CC1 [Cmpd026, 3-(3-Chlorophenyl)-5-(4-(2-methylbenzyl)piperazin-1-yl)-1,2,4-oxadiazole] | – | – | 88
Cc1ccccc1CN1CCN(c2nc(Cc3ccc(Cl)cc3)no2)CC1 [Cmpd058, 1-[3-(4-Chloro-benzyl)-[1,2,4]oxadiazol-5-yl]-4-(2-methyl-benzyl)-piperazine] | – | – | 177
COc1cccc(CCN2CCN(c3nc(C(C)(C)c4ccc(F)cc4)no3)CC2)c1 [Cmpd118, 3-(2-(4-Fluorophenyl)propan-2-yl)-5-(4-(3-methoxyphenethyl)piperazin-1-yl)-1,2,4-oxadiazole] | – | – | 105
CCC(c1ccccc1)c1noc(N2CCN(Cc3ccc4c(c3)OCO4)CC2)n1 (stereo not drawn) [Cmpd047, 5-(4-(Benzo[d][1,3]dioxol-5-ylmethyl)piperazin-1-yl)-3-(1-phenylpropyl)-1,2,4-oxadiazole] | – | – | 63
Clc1ccccc1CN1CCN(c2nc(-c3ccccc3)no2)CC1 [Cmpd001, 5-(4-(2-Chlorobenzyl)piperazin-1-yl)-3-phenyl-1,2,4-oxadiazole] | – | – | 27
Clc1ccc(CCN2CCN(c3nc(-c4ccccc4)no3)CC2)cc1 [Cmpd003, 5-(4-(4-Chlorophenethyl)piperazin-1-yl)-3-phenyl-1,2,4-oxadiazole] | – | – | 12
COc1cccc(CCN2CCN(c3nc(Cc4cccc(F)c4)no3)CC2)c1 [Cmpd090, 1-[3-(3-Fluoro-benzyl)-[1,2,4]oxadiazol-5-yl]-4-[2-(3-methoxy-phenyl)-ethyl]-piperazine] | – | – | 37
